This passage reports AC50, IC50 and GI50 results from patent US20260285853A1, “COMPOUNDS AND METHODS FOR MODULATING SPLICING” (REMIX THERAPEUTICS INC., priority 2023, published 2026).

Structures are written as SMILES. Where only a bound is given, the exact number is not on record here.

Common to all, as to format: cell-based
Experiment [1] concerns MYB mRNA. Nature of the experiment: Splicing RT-qPCR assay (THP), Table 2A. The following applies: Table 2A, THP; for AC50: MYB alternative junction (AJ) mRNA, read-out: MYB AJ (AC50, increase in alternative junction mRNA); for IC50: MYB canonical junction (CJ) mRNA, read-out: MYB CJ (IC50, decrease in canonical junction mRNA). (Quantitative PCR measures a nucleic acid by following its amplification.)

In experiment [2] the test system is HTT mRNA. Nature of the experiment: Splicing RT-qPCR assay (THP), Table 2A. The following applies: Table 2A, THP; for AC50: HTT alternative junction (AJ) mRNA, read-out: HTT AJ (AC50, increase in alternative junction mRNA); for IC50: HTT canonical junction (CJ) mRNA, read-out: HTT CJ (IC50, decrease in canonical junction mRNA).
In experiment [3] the test system is SH-SY5Y (human neuroblastoma) cells. The experiment can be described thus: Cell viability, Cell Titer Glo 2.0 assay. The following applies: read-out: Viability SHSY5Y.3 GI50. The method in brief:
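SH-SY5Y neuroblastoma cells are exposed to test compounds for 72 hours at 37 °C and 5% CO2, with final DMSO held at 0.1%. Cell viability is then measured with the CellTiter-Glo 2.0 assay.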
(In general: ATP-based viability assays read luminescence as a measure of living cells.)

The test system of experiment [4] is MYB mRNA. The experiment can be described thus: Gene panel canonical junction qPCR assay, decrease in CJ mRNA, Table 3. The following applies: decrease in CJ mRNA levels, canonical junction qPCR, gene panel. The method in brief: (§1)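 A673 cells were plated, left to adhere for 24 h, then dosed; K562 cells were plated in 96- or 384-well format and dosed directly. Both were incubated 24 h at 37 °C with an 11-point 3-fold series (top 10 uM final). Canonical junction mRNA was then read by cDNA synthesis and qPCR.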

The subject of experiment [5] is HTT mRNA. Described as above. The following applies: decrease in CJ mRNA levels, canonical junction qPCR, gene panel. The method in brief: as §1

What is called AC50 is the midpoint of the concentration-response curve, whichever way the signal moves. As a reminder, the IC50 is the point on the concentration scale where inhibition reaches its midpoint. Broadly, the GI50 is the concentration that inhibits growth by half. `CC(=O)Nc1nc2c(C(=O)Nc3cc(F)c4nn(C)cc4c3)ccc(N3C[C@H](C)N[C@@H](C)C3)c2s1` [Compound 724, 2-acetamido-7-[(3S,5S)-3,5-dimethylpiperazin-1-yl]-N-(7-fluoro-2-methyl-indazol-5-yl)-1,3-benzothiazole-4-carboxamide]: the AC50 in experiment [1] was below 100 nM; in experiment [2] it was 1 to 10 µM. Further, the IC50 in experiment [1] is below 100 nM; in experiment [2] it was 0.1 to 1 µM; in experiment [4], below 100 nM; in experiment [5], 0.1 to 1 µM. In experiment [3], the 50% growth inhibitory concentration (GI50) is 1 to 10 µM.
On to `CC(=O)NCc1nc(C)cn2cc(NC(=O)c3ccc(N4CCC(NC5CC5)CC4)c4cn(C)nc34)nc12` [Compound 725, N-[8-(acetamidomethyl)-6-methyl-imidazo[1,2-a]pyrazin-2-yl]-4-[4-(cyclopropylamino)-1-piperidyl]-2-methyl-indazole-7-carboxamide], for which the AC50 in experiment [1] was above 10000 nM; in experiment [2] it was above 10 µM. In addition, the IC50 in experiment [1] was above 10000 nM; in experiment [2], above 10 µM; in experiment [4], above 10000 nM; in experiment [5] it was above 10 µM. The GI50 in experiment [3] is above 10 µM.
On to `COc1nc2c(C(=O)Nc3cc4cn(C)nc4c(C)c3O)ccc(N3C[C@H](C)N[C@@H](C)C3)c2s1` [Compound 726, 7-[(3S,5S)-3,5-dimethylpiperazin-1-yl]-N-(6-hydroxy-2,7-dimethyl-indazol-5-yl)-2-methoxy-1,3-benzothiazole-4-carboxamide], for which the AC50 was 100 to 1000 nM in experiment [1] and above 10 µM in experiment [2]. Also, the half-maximal inhibitory concentration (IC50) in experiment [1] is 1000 to 10000 nM; in experiment [2], above 10 µM; in experiment [4], 1000 to 10000 nM; in experiment [5], above 10 µM. For the same molecule, the GI50 in experiment [3] lay within 1 to 10 µM.
In the case of `COc1nc2c(C(=O)Nc3ccc4nn(C)cc4c3F)ccc(N3C[C@H](C)N[C@@H](C)C3)c2s1` [Compound 727, 7-((3S,5S)-3,5-dimethylpiperazin-1-yl)-N-(4-fluoro-2-methyl-2H-indazol-5-yl)-2-methoxybenzo[d]thiazole-4-carboxamide 2,2,2-trifluoroacetate], the results for the AC50 in experiment [1] and in experiment [2] were below 100 nM and 0.1 to 1 µM, respectively. Besides, the IC50 is below 100 nM in experiment [1], 0.1 to 1 µM in experiment [2], below 100 nM in experiment [4] and 0.1 to 1 µM in experiment [5]. In addition, the concentration for 50% growth inhibition (GI50) in experiment [3] is below 0.1 µM.
In the case of `COc1nc2c(C(=O)Nc3cc4cn(C)nc4cc3O)ccc(N3C[C@H](C)N[C@@H](C)C3)c2s1` [Compound 728, 7-[(3S,5S)-3,5-dimethylpiperazin-1-yl]-N-(6-hydroxy-2-methyl-indazol-5-yl)-2-methoxy-1,3-benzothiazole-4-carboxamide], the AC50 in experiment [1] was 100 to 1000 nM; in experiment [2] it was above 10 µM. Further, the IC50 in experiment [1] was 100 to 1000 nM; in experiment [2] it was above 10 µM; in experiment [4] it was 100 to 1000 nM; in experiment [5], above 10 µM. For the same molecule, the GI50 in experiment [3] lay within 1 to 10 µM.
For `COc1nc2c(C(=O)Nc3ccc4nn(C)cc4c3OC)ccc(N3C[C@H](C)N[C@@H](C)C3)c2s1` [Compound 729, 7-[(3S,5S)-3,5-dimethylpiperazin-1-yl]-2-methoxy-N-(4-methoxy-2-methyl-indazol-5-yl)-1,3-benzothiazole-4-carboxamide], the values for the half-maximal activity concentration (AC50) in experiment [1] and in experiment [2] were above 10000 nM and above 10 µM, respectively. The IC50 in experiment [1] was above 10000 nM; in experiment [2], 1 to 10 µM; in experiment [4], above 10000 nM; in experiment [5], 1 to 10 µM. For the same molecule, the GI50 in experiment [3] fell in the range of 1 to 10 µM.
Consider `COc1nc2c(C(=O)Nc3ccc(=O)n(C)c3)ccc(N3C[C@H](C)N[C@@H](C)C3)c2s1` [Compound 730, 7-((3S,5S)-3,5-dimethylpiperazin-1-yl)-2-methoxy-N-(1-methyl-6-oxo-1,6-dihydropyridin-3-yl)benzo[d]thiazole-4-carboxamide 2,2,2-trifluoroacetate], for which the AC50 in experiment [1] is 100 to 1000 nM; in experiment [2], above 10 µM. In addition, the IC50 was 100 to 1000 nM in experiment [1], above 10 µM in experiment [2], 100 to 1000 nM in experiment [4] and above 10 µM in experiment [5]. Also, the concentration for 50% growth inhibition (GI50) in experiment [3] was 1 to 10 µM.
